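The compound was tested at five concentrations on cells cultured in 96-well plates, with a 48-hour exposure period. GI50 marks 50% less growth. The concentration for full growth arrest is given as TGI.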
Key:
Test in all cases: NCI tumour cell line growth inhibition, 48 h
HT29 colon = system: HT29 colon
KM12 colon = system: KM12 colon
NCI-H226 lung = system: NCI-H226 lung
NCI-H460 lung = system: NCI-H460 lung
NCI/ADR-RES ovarian = system: NCI/ADR-RES ovarian
RXF 393 renal = system: RXF 393 renal
SF-539 CNS = system: SF-539 CNS
SR leukemia = system: SR leukemia
UACC-62 melanoma = system: UACC-62 melanoma
UO-31 renal = system: UO-31 renal

Compound: CCNC(=S)N=Nc1c(O)[nH]c2ccc([N+](=O)[O-])cc12
- TGI (HT29 colon): > 100 µM
- TGI (KM12 colon): > 100 µM
- TGI (NCI-H226 lung): > 100 µM
- TGI (NCI-H460 lung): > 100 µM
- TGI (NCI/ADR-RES ovarian): > 100 µM
- TGI (RXF 393 renal): 80.4 µM
- TGI (SF-539 CNS): > 100 µM
- TGI (SR leukemia): > 100 µM
- TGI (UACC-62 melanoma): > 100 µM
- TGI (UO-31 renal): > 100 µM

Compound: COC(OC)[C@@H]1OC[C@H](n2cnc3c(N)ncnc32)[C@H]1O
- TGI (HT29 colon): > 100 µM
- TGI (KM12 colon): > 100 µM
- TGI (NCI-H226 lung): > 100 µM
- TGI (NCI-H460 lung): > 100 µM
- TGI (NCI/ADR-RES ovarian): > 100 µM
- TGI (RXF 393 renal): > 100 µM
- TGI (SF-539 CNS): > 100 µM
- TGI (SR leukemia): > 100 µM
- TGI (UACC-62 melanoma): > 100 µM
- TGI (UO-31 renal): > 100 µM

Compound: O=C1C[C@@H](C(=O)OCc2ccccc2)NC(=O)C[C@@H](C(=O)OCc2ccccc2)NC(=O)C[C@@H](C(=O)OCc2ccccc2)N1
- TGI (HT29 colon): > 100 µM
- TGI (KM12 colon): > 100 µM
- TGI (NCI-H226 lung): > 100 µM
- TGI (NCI-H460 lung): > 100 µM
- TGI (NCI/ADR-RES ovarian): > 100 µM
- TGI (RXF 393 renal): 41.8 µM
- TGI (SF-539 CNS): > 72.3 µM
- TGI (SR leukemia): 20.7 µM
- TGI (UACC-62 melanoma): > 100 µM
- TGI (UO-31 renal): > 100 µM

Compound: CC(NC(=O)C(NC(=O)CNC(=O)OC(C)(C)C)C(C)C)C(=O)Oc1c(Cl)c(Cl)c(Cl)c(Cl)c1Cl (stereo not given)
- TGI (HT29 colon): 68.5 µM
- TGI (KM12 colon): 30.4 µM
- TGI (NCI-H226 lung): 52.6 µM
- TGI (NCI-H460 lung): 39.3 µM
- TGI (NCI/ADR-RES ovarian): 39.1 µM
- TGI (RXF 393 renal): 44.6 µM
- TGI (SF-539 CNS): 33.4 µM
- TGI (SR leukemia): > 100 µM
- TGI (UACC-62 melanoma): 34.8 µM
- TGI (UO-31 renal): 29.5 µM

Compound: Cc1ccc(/C(O)=C/c2nc3ccccc3sc2=O)c(C)c1
- TGI (HT29 colon): > 100 µM
- TGI (KM12 colon): > 100 µM
- TGI (NCI-H226 lung): > 100 µM
- TGI (NCI-H460 lung): > 100 µM
- TGI (NCI/ADR-RES ovarian): > 100 µM
- TGI (RXF 393 renal): 18.2 µM
- TGI (SF-539 CNS): > 100 µM
- TGI (SR leukemia): 75.8 µM
- TGI (UACC-62 melanoma): > 100 µM
- TGI (UO-31 renal): > 100 µM

Compound: C=C/C(C)=C\CC1[C@](C)(O)CC[C@H]2C(C)(C)C(=O)CC[C@]12C (stereo not given in full)
- TGI (HT29 colon): > 100 µM
- TGI (KM12 colon): > 100 µM
- TGI (NCI-H226 lung): > 100 µM
- TGI (NCI-H460 lung): > 100 µM
- TGI (NCI/ADR-RES ovarian): > 100 µM
- TGI (RXF 393 renal): > 100 µM
- TGI (SF-539 CNS): > 100 µM
- TGI (SR leukemia): 66.5 µM
- TGI (UACC-62 melanoma): > 100 µM
- TGI (UO-31 renal): 57 µM

Compound: CC1(C)N/C(=C\C=O)C(C)(C)N1O
- TGI (HT29 colon): > 100 µM
- TGI (KM12 colon): > 100 µM
- TGI (NCI-H226 lung): > 100 µM
- TGI (NCI-H460 lung): > 100 µM
- TGI (NCI/ADR-RES ovarian): > 100 µM
- TGI (RXF 393 renal): > 100 µM
- TGI (SF-539 CNS): > 100 µM
- TGI (SR leukemia): > 100 µM
- TGI (UACC-62 melanoma): > 100 µM
- TGI (UO-31 renal): > 100 µM

Compound: CSCCC(N)C(=O)NCCNc1ccc(NCCNC(=O)C(N)CCSC)c2c1C(=O)c1ccccc1C2=O (stereo not given)
- TGI (HT29 colon): 3.21 µM
- TGI (KM12 colon): 12.8 µM
- TGI (NCI-H226 lung): 7.46 µM
- TGI (NCI-H460 lung): 9.33 µM
- TGI (NCI/ADR-RES ovarian): 16.2 µM
- TGI (RXF 393 renal): 4.73 µM
- TGI (SF-539 CNS): 3.11 µM
- TGI (SR leukemia): 2.85 µM
- TGI (UACC-62 melanoma): 2.51 µM
- TGI (UO-31 renal): 4.39 µM

Compound: O=C1C(Cl)=C(OCCCl)C(=O)c2c(O)ccc(O)c21
- TGI (HT29 colon): 12.5 µM
- TGI (KM12 colon): 40.5 µM
- TGI (NCI-H226 lung): 30.7 µM
- TGI (NCI-H460 lung): 40.7 µM
- TGI (NCI/ADR-RES ovarian): 69.1 µM
- TGI (RXF 393 renal): 18.6 µM
- TGI (SF-539 CNS): 31.8 µM
- TGI (SR leukemia): 0.397 µM
- TGI (UACC-62 melanoma): 14 µM
- TGI (UO-31 renal): 11 µM

Compound: Cc1cc(F)ccc1S(=O)(=O)Nc1cc(-c2c(O)ccc3ccccc23)c(O)c2ccccc12
- GI50 (HT29 colon): 4.09 µM
- TGI (HT29 colon): 21.1 µM
- GI50 (KM12 colon): 1.93 µM
- TGI (KM12 colon): 4.02 µM
- GI50 (NCI-H226 lung): 2.85 µM
- TGI (NCI-H226 lung): 14.5 µM
- GI50 (NCI-H460 lung): 2.92 µM
- TGI (NCI-H460 lung): 11.4 µM
- GI50 (NCI/ADR-RES ovarian): 3.05 µM
- TGI (NCI/ADR-RES ovarian): 13.6 µM
- GI50 (RXF 393 renal): 2.53 µM
- TGI (RXF 393 renal): 9.11 µM
- GI50 (SF-539 CNS): 1.83 µM
- TGI (SF-539 CNS): 3.59 µM
- GI50 (SR leukemia): 3.21 µM
- TGI (SR leukemia): 19.3 µM
- GI50 (UACC-62 melanoma): 1.85 µM
- TGI (UACC-62 melanoma): 4.54 µM
- GI50 (UO-31 renal): 2.38 µM
- TGI (UO-31 renal): 13.3 µM

Compound: COc1ccc(C2=Nc3cc(C)c(C)cc3NC(c3ccccc3)C2)cc1 (stereo not given)
- TGI (HT29 colon): > 100 µM
- TGI (KM12 colon): > 100 µM
- TGI (NCI-H226 lung): > 100 µM
- TGI (NCI-H460 lung): > 100 µM
- TGI (NCI/ADR-RES ovarian): > 100 µM
- TGI (RXF 393 renal): > 100 µM
- TGI (SF-539 CNS): > 100 µM
- TGI (SR leukemia): 54.5 µM
- TGI (UACC-62 melanoma): > 100 µM
- TGI (UO-31 renal): > 100 µM

Compound: COc1cccc(CCN2CCN(CCCc3ccccc3)CC2)c1
- TGI (HT29 colon): > 100 µM
- TGI (KM12 colon): > 100 µM
- TGI (NCI-H226 lung): > 100 µM
- TGI (NCI-H460 lung): > 100 µM
- TGI (NCI/ADR-RES ovarian): > 100 µM
- TGI (RXF 393 renal): > 100 µM
- TGI (SF-539 CNS): > 100 µM
- TGI (SR leukemia): > 100 µM
- TGI (UACC-62 melanoma): > 100 µM
- TGI (UO-31 renal): > 100 µM

Compound: CCCCC(=O)c1c(O)nc2sccn2c1=O
- TGI (HT29 colon): > 10 µM
- TGI (KM12 colon): > 10 µM
- TGI (NCI-H226 lung): > 10 µM
- TGI (NCI-H460 lung): > 10 µM
- TGI (NCI/ADR-RES ovarian): > 10 µM
- TGI (RXF 393 renal): > 10 µM
- TGI (SF-539 CNS): > 10 µM
- TGI (SR leukemia): > 10 µM
- TGI (UACC-62 melanoma): > 10 µM
- TGI (UO-31 renal): > 10 µM

Compound: Cc1cc(S(=O)(=O)N/C(=C(\C#N)C(=O)c2ccc(Cl)cc2)[n+]2ccc(N(C)C)cc2)c([S-])cc1Cl
- TGI (HT29 colon): 95.1 µM
- TGI (KM12 colon): > 100 µM
- TGI (NCI-H226 lung): > 100 µM
- TGI (NCI-H460 lung): > 100 µM
- TGI (NCI/ADR-RES ovarian): > 100 µM
- TGI (RXF 393 renal): > 100 µM
- TGI (SF-539 CNS): > 100 µM
- TGI (SR leukemia): > 100 µM
- TGI (UACC-62 melanoma): > 100 µM
- TGI (UO-31 renal): > 100 µM

— PubChem BioAssay (NCI)
